Entries after “also recorded” stand apart in the source; their conditions may differ.
Legend:
[1] = system: BCMA-expressing NCI-H929 tumors; assay: NCI-H929 + PBMC xenogenic tumor model, immediate treatment, 4 mg/kg (Example 10); assay type: in vivo, mouse
Method: To determine the in vivo efficacy of BCMA×CD3 bispecific antibodies (Abs), a xenogenic tumor study was performed. Immunodeficient NOD.Cg-Prkdc^scidIl2rg^tm1Wji/SzJ (NSG) mice were subcutaneously implanted with a mixture of 10×10^6 BCMA-expressing NCI-H929 multiple myeloma cells and 0.5×10^6 human peripheral blood mononuclear cells (PBMC) isolated from a normal donor. […] The mice were administered Abs twice per week for a total of three weeks, and tumor growth was assessed over 40 days. While BCMA^+ tumors grew similarly in the vehicle-, isotype control-, and CD3-binding control-treated mice, both BCMA×CD3 Abs that were tested prevented the growth of tumors in vivo.
Implantation and measurement of syngeneic tumors: NSG mice were subcutaneously implanted with a mixture of 10×10^6 BCMA-expressing NCI-H929 multiple myeloma cells and 0.5×10^6 PBMC derived from a normal donor. […] The mice were administered Abs twice per week for a total of three weeks. Tumor growth was measured with calipers twice per week for the duration of the experiment. Mice were sacrificed 40 days after tumor implantation.
(§1) Calculation of syngeneic tumor growth and inhibition: In order to determine tumor volume by external caliper, the greatest longitudinal diameter (length in mm) and the greatest transverse diameter (width in mm) were determined. Tumor volumes based on caliper measurements were calculated by the formula: Volume (mm^3)=(length×width^2)/2.

[2] = system: MC38/BCMA tumors; assay: Syngenic MC38/BCMA tumor model, combination with anti-PD-1, second experiment (Example 21); assay type: in vivo, mouse; details: REGN5458 0.04 or 0.4 mg/kg plus anti-PD-1 4 mg/kg
From the text: Implantation and measurement of syngenic tumors: C57BL/6 mice that express human CD3deg in place of murine CD3deg (CD3-humanized mice) were subcutaneously implanted with 1×10^6 MC38 colon carcinoma cells that have been engineered to express full-length human BCMA (MC38/BCMA).
as §1, with “syngenic” for “syngeneic”

[3] = system: MC38/BCMA tumors; assay: Syngenic MC38/BCMA tumor model in CD3-humanized mice (Example 16); assay type: in vivo, mouse
Method: To determine the in vivo efficacy of anti-BCMA×anti-CD3 bispecific antibodies (Abs), a syngenic tumor study was performed in mice expressing human CD3. C57BL/6 mice that express human CD3deg in place of murine CD3deg (CD3-humanized mice) were subcutaneously implanted with either 0.5×10^6 B16 melanoma cells that have been engineered to express full-length human BCMA (B16/BCMA cells) or 1×10^6 MC38 colon carcinoma cells that have been engineered to express full-length human BCMA (MC38/BCMA). […] The mice were administered these Abs twice more on days 4 and 7 for a total of three doses, and tumor growth was assessed throughout the experiment.
Implantation and measurement of syngenic tumors: C57BL/6 mice that express human CD3deg in place of murine CD3deg (CD3-humanized mice) were subcutaneously implanted with either 0.5×10^6 B16F10 melanoma cells that have been engineered to express full-length human BCMA (B16/BCMA cells) or 1×10^6 MC38 colon carcinoma cells that have been engineered to express full-length human BCMA (MC38/BCMA). […] The mice were administered these Abs twice more on days 4 and 7 for a total of three doses, and tumor growth was assessed throughout the experiment.
as §1, with “syngenic” for “syngeneic”

[4] = biological target: T1, primary cynomolgus CD8+ T cells (Macaca fascicularis, UniProt Q95LI5+Q95LI8); assay: FACS binding to primary cynomolgus CD8+ T cells; details: median EC50, FACS binding
T1 construct: endogenous in cells; host or cells: primary cynomolgus CD8+ T cells (gated CD8+/CD16-)
T1 sequence (Q95LI5 22-198): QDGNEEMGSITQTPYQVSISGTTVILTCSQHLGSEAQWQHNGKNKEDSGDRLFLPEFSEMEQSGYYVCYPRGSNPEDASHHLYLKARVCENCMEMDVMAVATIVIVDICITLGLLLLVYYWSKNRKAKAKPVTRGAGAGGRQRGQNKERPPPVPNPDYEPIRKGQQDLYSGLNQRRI
T1 sequence (Q95LI8 22-171): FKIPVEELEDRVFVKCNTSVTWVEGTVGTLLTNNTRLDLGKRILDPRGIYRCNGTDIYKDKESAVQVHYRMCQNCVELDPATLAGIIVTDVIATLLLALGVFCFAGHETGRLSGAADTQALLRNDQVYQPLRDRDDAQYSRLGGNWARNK
T1 sequence (Q95LI7 23-181 partner): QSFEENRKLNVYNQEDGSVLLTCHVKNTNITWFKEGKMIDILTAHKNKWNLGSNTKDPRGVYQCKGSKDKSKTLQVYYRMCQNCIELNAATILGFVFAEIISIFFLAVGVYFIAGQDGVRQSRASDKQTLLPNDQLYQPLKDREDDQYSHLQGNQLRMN
Method: Flow cytometric analysis was utilized to determine binding of BCMA×CD3 bispecific antibodies to human and cynomolgus CD3 (Jurkat cells, mfCD3 engineered Jurkat cells, primary human CD8+ and cynomolgus CD8+ T cells). Briefly, 1e05 cells/well were incubated in the presence of FACS wash with block (PBS+1% filtered FBS+5% mouse serum) with a serial dilution of BCMA×CD3 and control antibodies for 30 minutes on ice. After incubation, the cells were washed twice with cold FACS wash (PBS+1% filtered FBS) and bound antibody was detected by incubating with Alexa647-conjugated anti-human secondary antibody on ice for an additional 30 minutes. Wells containing no antibody or secondary only were used as a control. For the detection of monkey and human T cells, a cocktail of human and cynomolgus cross-reactive antibodies to CD4, CD8 and CD16 was added to the anti-human secondary. After incubation, cells were washed, re-suspended in 200 μL cold PBS containing 1% filtered FBS and analyzed by flow cytometry on a BD FACS Canto II. Cells were gated by FSC-H by FSC-A to select singlet events, followed by side and forward scatters to select for live events. For monkey T cells, additional gating on CD8+/CD16− cells was performed.
EC50 values for FACS binding were calculated using 4-parameter non-linear regression analysis in Prism software.

Row | Substance | Average Tumor Size (mm3) ± SEM on Day 4 [1] | Average Tumor Size (mm3) ± SEM on Day 7 [1] | Average Tumor Size (mm3) ± SEM on Day 11 [1] | Average Tumor Size (mm3) ± SEM on Day 14 [1] | Average Tumor Size (mm3) ± SEM on Day 18 [1] | Average Tumor Size (mm3) ± SEM on Day 21 [1] | Average Tumor Size (mm3) ± SEM on Day 28 [1] | Average Tumor Size (mm3) ± SEM on Day 40 [1] | anti-tumor efficacy of the combination (in words) [2] | Average Tumor Size (mm3) ± SEM on Day 5 ([3]; MC38/BCMA Tumor, 0.04 mg/kg, Day 5) | Average Tumor Size (mm3) ± SEM on Day 10 ([3]; MC38/BCMA Tumor, 0.04 mg/kg) | Average Tumor Size (mm3) ± SEM on Day 14 ([3]; MC38/BCMA Tumor, 0.04 mg/kg) | Average Tumor Size (mm3) ± SEM on Day 18 ([3]; MC38/BCMA Tumor, 0.04 mg/kg) | Average Tumor Size (mm3) ± SEM on Day 10 ([3]; MC38/BCMA Tumor, 0.4 mg/kg) | Average Tumor Size (mm3) ± SEM on Day 14 ([3]; MC38/BCMA Tumor, 0.4 mg/kg) | Average Tumor Size (mm3) ± SEM on Day 18 ([3]; MC38/BCMA Tumor, 0.4 mg/kg) | tumor growth (in words) ([3]; MC38/BCMA, 0.4 or 0.04 mg/kg, three doses) | Mf (Cyno) CD8+ T cells EC50 [M] [4]
1 | REGN5458: anti-BCMA×anti-CD3 bispecific antibody: BCMA HCVR of mAb21581 (SEQ 66), CD3 HCVR of mAb7221G (SEQ 90), common LCVR SEQ 82 | 39.5 ± 9.1 mm3 | 0 ± 0 mm3 | 0 ± 0 mm3 | 0 ± 0 mm3 | 0 ± 0 mm3 | 0 ± 0 mm3 | 0 ± 0 mm3 | 0 ± 0 mm3 | superior anti-tumor efficacy | 11.9 ± 2.9 mm3 | 66.7 ± 22.5 mm3 | 273.3 ± 115.3 mm3 | 641.5 ± 309.8 mm3 | 0.0 ± 0.0 mm3 | 2.9 ± 2.9 mm3 | 7.5 ± 7.5 mm3 | suppress the growth of both tumor lines in a dose-dependent manner | –
2 | REGN5459: anti-BCMA×anti-CD3 bispecific antibody: BCMA HCVR of mAb21581 (SEQ 66), CD3 HCVR of mAb7221G20 (SEQ 98), common LCVR SEQ 82 | 26.5 ± 6.2 mm3 | 0 ± 0 mm3 | 0 ± 0 mm3 | 0 ± 0 mm3 | 0 ± 0 mm3 | 0 ± 0 mm3 | 0 ± 0 mm3 | 0 ± 0 mm3 | – | – | – | – | – | – | – | – | – | did not bind; also recorded: No binding

From US20260008862A1, “Bispecific Anti-BCMA x Anti-CD3 Antibodies and Uses Thereof” (Regeneron Pharmaceuticals, Inc., priority 2018, published 2026)
